Experimental data from patent US4520023A, “3-(3-Iodopropargyl)-benzo-1,2,3-triazin-4-ones, and their use in microbicidal agents” (Bayer Aktiengesellschaft, priority 1982, dated 1985).
Values after ≈ are worked out from the molar mass of the structure shown. Read-outs that look alike come from different tables or passages of the source.

Assays:
[1] = test system: Lentinus tigrinus; test: Agar MIC determination, Lentinus tigrinus; assay type: cell-based; settings: 336 h, beerwort/peptone agar, 28° C., 2 weeks
Experimental: (§1) Active compounds according to the invention are added, in concentrations of 0.1 mg/liter to 5,000 mg/liter, to an agar prepared from beerwort and peptone. After storage at 28° C. and 60 to 70% relative atmospheric humidity for 2 weeks, the MIC is determined.

[2] = test system: Trichoderma viride; test: Agar MIC determination, Trichoderma viride; assay type: cell-based; settings: 336 h, beerwort/peptone agar, 28° C., 2 weeks
Experimental: as §1

[3] = test system: Penicillium glaucum; test: Agar MIC determination, Penicillium glaucum; assay type: cell-based; settings: 336 h, beerwort/peptone agar, 28° C., 2 weeks
Experimental: as §1

[4] = test system: Coniophora cerebella; test: Agar MIC determination, Coniophora cerebella; assay type: cell-based; settings: 336 h, beerwort/peptone agar, 28° C., 2 weeks
Experimental: as §1

[5] = test system: Aureobasidium pullulans; test: Agar MIC determination, Aureobasidium pullulans; assay type: cell-based; settings: 336 h, beerwort/peptone agar, 28° C., 2 weeks
Experimental: as §1

[6] = test system: Chaetomium globosum; test: Agar MIC determination, Chaetomium globosum; assay type: cell-based; settings: 336 h, beerwort/peptone agar, 28° C., 2 weeks
Experimental: as §1

[7] = test system: Alternaria tenuis; test: Agar MIC determination, Alternaria tenuis; assay type: cell-based; settings: Alternaria alternata, 336 h, beerwort/peptone agar, 28° C., 2 weeks
Experimental: as §1

[8] = test system: fungi (Aspergillus niger, Aureobasidium pullulans, Alternaria speciales, Penicillium citrinum, Stachybotrys atra, Paecilomyces varioti, Cladosporium herbarum …); test: Testing of paint films for resistance to mould (Report 219, Defense Standards Laboratories); settings: 1.5 to 2% (or more) based on total solids content
Experimental: The test is carried out in accordance with Report 219 of the Defense Standards Laboratories Maibyrnong/Australia, as follows: smooth cardboard is coated on both sides with the product to be tested and is dried at room temperature for 8 days. For ageing, part of the coating is kept in running water at 24° C. for 24 hours, part is aerated with fresh air of 40° to 60° C. for 8 days, and part is exposed to a dry Xenon test for 110 hours. 5×5 cm sections of the test pieces thus treated are placed individually in Petri dishes on a glucose nutrient medium, and are contaminated with a spore suspension of the following fungi: Aspergillus niger, Aureobasidium pullulans, Alternaria speciales, Penicillium citrinum, Stachybotrys atra, Paecilomyces varioti, Cladosporium herbarum, Aspergillus ustus or Aspergillus flavus.
The contaminated dishes are kept at 28°-30° C. and 90-95% relative atmospheric humidity, and are evaluated after 3 weeks. Paint films are regarded as mould-resistant if the test pieces remain free from fungi after this test.
A commercially available, alkaline emulsion paint based on polyvinyl acetate is tested for mould resistance by the test method described above.

[9] = test system: slime organisms; test: Action against slime organisms in Allens nutrient solution; assay type: cell-based; settings: 504 h
Experimental: Compounds according to the invention, dissolved in acetone, are used in concentrations of in each case 0.1 to 100 mg/liter in Allens nutrient solution (Arch. Mikrobiol. 17, 34 to 53 (1952)) containing, in 4 liters of sterile water, 0.2 g of ammonium chloride, 4.0 g of sodium nitrate, 1.0 g of dipotassium hydrogen phosphate, 0.2 g of calcium chloride, 2.05 g of magnesium sulphate, 0.02 g of iron chloride and 1% of caprolactam. Shortly beforehand, the nutrient solution is infected with slime organisms (about 10^6 germs/ml) which have been isolated from the spinning water circulations used in the preparation of polyamide.

[10] = test system: Sclerophoma pityophila; test: Agar MIC determination, Sclerophoma pityophila; assay type: cell-based; settings: Sydowia polyspora, 336 h, beerwort/peptone agar, 28° C., 2 weeks
Experimental: as §1

[11] = test system: Aspergillus niger; test: Agar MIC determination, Aspergillus niger; assay type: cell-based; settings: 336 h, beerwort/peptone agar, 28° C., 2 weeks
Experimental: as §1

[12] = slime organisms about 10^6 germs/ml, Allens nutrient solution, room temperature, 3 weeks, read-out: MIC

Q: For `O=c1c2ccccc2nnn1CC#CI` [Active compound A, 3-(3-Iodopropargyl)-benzo-1,2,3-triazin-4-one], which MIC [1] is on record?
A: 2 µg/mL (≈ 6.43 µM)

Q: And the MIC [2]?
A: 10 µg/mL (≈ 32.1 µM)

Q: And the MIC [3]?
A: 5 µg/mL (≈ 16.1 µM)

Q: And the MIC [4]?
A: 0.5 µg/mL (≈ 1.61 µM)

Q: What about the MIC [5] of the same compound?
A: 5 µg/mL (≈ 16.1 µM)

Q: What about the MIC [6] of the same compound?
A: < 20 µg/mL

Q: And the MIC [7]?
A: 5 µg/mL (≈ 16.1 µM)

Q: And the “mould resistance of paint films” value ([8]; alkaline polyvinyl acetate emulsion paint, 3 weeks, 28°-30° C.)?
A: very good mould-resistant paint films

Q: What about the “mould resistance of paint films after ageing” value ([8]; films first subjected to running water 24 hours, fresh air 40° to 60° C. 8 days, or dry Xenon test 110 hours) of the same compound?
A: very good mould-resistant paint films

Q: What about the MIC ([9]; read-out: MIC in mg/liter) of the same compound?
A: 5 mg/L (≈ 16.1 µM)

Q: What about the MIC [10] of the same compound?
A: 3.5 µg/mL (≈ 11.3 µM)

Q: What about the MIC [11] of the same compound?
A: 5 µg/mL (≈ 16.1 µM)

Q: Which results are given for `O=c1c2cc([N+](=O)[O-])ccc2nnn1CC#CI` [Active compound B, 3-(3-Iodopropargyl)-6-nitro-benzo-1,2,3-triazin-4-one]?
A: MIC [3]: < 20 µg/mL; MIC [6]: < 20 µg/mL; MIC [9, 12]: 20 mg/L (≈ 56.2 µM); MIC [11]: < 20 µg/mL

Q: `O=c1c2ccc(Cl)cc2nnn1CC#CI` [Active compound C, 3-(3-Iodopropargyl)-7-chloro-benzo-1,2,3-triazin-4-one] was tested. Which MIC [3] did it give?
A: < 20 µg/mL

Q: What about the MIC [6] of the same compound?
A: < 20 µg/mL

Q: What about the MIC [9, 12] of the same compound?
A: 30 mg/L (≈ 86.8 µM)

Q: And the MIC [11]?
A: < 20 µg/mL

Q: How did the MIC [2] turn out when `CCCCNC(=O)OCC#CI` [Active compound D, iodopropargyl N-butyl-carbamate, reference compound] was run?
A: 140 µg/mL (≈ 498 µM)

Q: What about the MIC [3] of the same compound?
A: 40 µg/mL (≈ 142 µM)

Q: And the MIC [6]?
A: 60 µg/mL (≈ 213 µM)

Q: And the MIC [11]?
A: 80 µg/mL (≈ 285 µM)
